According to PubChem BioAssay (NCI):
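Cultured in 96-well plates, cells were exposed to test compound for 48 hours across five concentrations. Abbreviation: GI50, concentration required for 50% inhibition of growth. Definition used: TGI = concentration required for complete inhibition of growth.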

Legend:
Test in all cases: NCI-60 cell line screen, 48 h
HOP-18 NSCLC = tested on: HOP-18 NSCLC
RXF-631 renal = tested on: RXF-631 renal
T-47D breast = tested on: T-47D breast
XF 498 CNS = tested on: XF 498 CNS

Structure (SMILES): CCOc1cc2c(cc1OC)c[n+](C)c1c3cc(OC)c(OC)cc3ccc21
- TGI (HOP-18 NSCLC): > 80.1 µM
- TGI (RXF-631 renal): 44.9 µM

Structure (SMILES): COc1ccccc1C1C(C#N)=C(N)SC(N)=C1C#N
- GI50 (T-47D breast): 35.5 µM
- TGI (T-47D breast): > 100 µM

Structure (SMILES): CCOC(=O)c1ccc(N2C(=O)/C(=C/c3ccc(N(CCC#N)CCC#N)cc3)N=C2c2cc([N+](=O)[O-])ccc2Cl)cc1
- TGI (HOP-18 NSCLC): > 100 µM
- TGI (RXF-631 renal): > 100 µM

Structure (SMILES): CC1OC1C(=O)P(=O)(O)O (configuration not stated)
- TGI (T-47D breast): > 100 µM

Structure (SMILES): NCC(=O)N[C@H]1c2ccsc2/C(=N/O)[C@H]1O
- TGI (T-47D breast): > 100 µM

Structure (SMILES): Cc1ccccc1NC(=O)C(=O)C(C1OC(=O)c2ccccc21)[N+](=O)[O-] (configuration not stated)
- TGI (XF 498 CNS): > 100 µM

Structure (SMILES): COC1CCC(O)C(CO)O1 (configuration not stated)
- TGI (XF 498 CNS): > 100 µM

Structure (SMILES): C[N+](C)(N)Cc1nc(-c2ccc(Cl)cc2)no1
- TGI (T-47D breast): > 100 µM

Structure (SMILES): O=C(O)CSC1=NCCN1
- TGI (T-47D breast): > 100 µM
